The values that follow come from patent EP0524718A1, “Polyurethane hydrogel compositions for iontophoretic drug delivery” (GENSIA PHARMACEUTICALS, INC., priority 1991, dated 1993).

This data set can be described thus: Drug stability in hydrogel matrix electrode pads (isocratic HPLC assay). The data set is classed as physicochemical. The conditions noted are these: in Hypol Hydrogel matrix, room temperature and 4°C, after six months.

Procedure: Stability of Arbutamine in electrode pads using the hydrogel matrix prepared from Hypol Hydrogel prepolymer was studied using the 3M Red Dot™ Electrode Construction. […] The matrix incorporating the drug was placed in the 3M Red Dot electrode (after removing the gel supplied with the electrode). The electrode was secured in an aluminum pouch with or without a nitrogen flush (as noted). Drug stability studies were carried out at room temperature and 4°C.

In the case of `Cl.Oc1ccc(CCCCNCC(O)c2ccc(O)c(O)c2)cc1` (stereo not shown) [Arbutamine, 1-(3,4-dihydroxyphenyl)-2-(4-(4-hydroxyphenyl)butylamino)ethanol hydrochloride], the drug degradation entry was “no significant drug degradation”.
